Data reported in US20260240975A1, “VALIDATED HPV16-DERIVED S[…]” (Deutsches Krebsforschungszentrum Stiftung des öffentlichen …, priority 2023, published 2026).
Read-outs that look alike come from different tables or passages of the source. No end group written: not given here.

Assays:
[1] = system: short-term antigen-specific T cell lines generated from PBMCs; design: key: +: ELISPOT: Immungenicity of the peptide shown by IFN-gamma ELISPOT analysis; * Highlights data from published resources; +*: * Highlights data from published resources; conditions: marked * (published resources), cited from earlier work
[2] = system: short-term antigen-specific T cell lines generated from PBMCs; test: Interferon-γ ELISpot assay on short-term T cell lines; format: cell-based, human; design: key: +: ELISPOT: Immungenicity of the peptide shown by IFN-gamma ELISPOT analysis; * Highlights data from published resources; +*: * Highlights data from published resources
[3] = system: peptide-specific T cell cultures; test: T cell phenotyping and intracellular cytokine staining (flow cytometry); format: cell-based, human; design: key: +: cytokine: Immunogenicity of the peptide shown by intracellular cytokine staining (IFN-gamma, TNF-alpha); conditions: IFN-gamma, TNF-alpha
HPV16-positive cells = test: Cytotoxicity assay (VITAL FR / live-cell imaging) with peptide-specific CD8+ T cells; format: cell-based, human; design: key: +: cytotox: Ability of peptide-specific T cells to kill HPV16-positive cells
Protocol: The flow cytometry based VITAL FR cytotoxicity assay was used as published by Stanke et al. (Stanke et al., 2010) to assess whether peptide-specific T cells are able to specifically kill HPV-transformed target cells. Briefly, two HLA-A2^+ cell lines, a HPV16-negative (HPV16^−) control cell line (C33A) and a HPV16-positive (HPV16^+) target cell line (CaSki) were fluorescently labeled with either FarRed or CFSE and were co-incubated with peptide-specific CD8^+ T cells as effector cells. After 48 h co-incubation, the fluorescently labeled cells were analyzed by flow cytometry to determine the surviving cells and calculate the specific cytolytic function of the effector cells by the ratio of target and control cells.
CaSki and C33A cells were fluorescently labeled with CFSE and FarRed, respectively. Cells of both cell lines were harvested and resuspended in plain RPMI medium at a concentration of 1×10^6 cells/mL. For cell labeling, 5 μM CSFE were added to CaSki cells and 0.25 μM FarRed were added to C33A cells. The cells were incubated at 37° C. and the reaction was stopped after 10 min by addition of 50 mL RPMI with 10% FBS. The cells were centrifuged at 300 xg for 5 min, the supernatant was discarded and the cells were resuspended in their cell culture medium. The labeled cells were seeded in T25 cell culture flasks with 1-2×10^6 cells/flask.
On the next day, the labeled CaSki and C33A as well as the epitope-specific semi-long-term T cell lines (described in 1.6) were harvested. CD8^+ T cells were isolated from the epitope-specific semi-long-term T cell lines using the MACS CD8^+ T cell isolation kit (Miltenyi Biotec) according to the manufacturer's protocol for LS columns. The CD8^+ T cells were resuspended in T cell medium and added to wells of a F-bottom 96-well plate in serial dilutions to achieve triplicates of 6×10^4, 3×10^4, 1.5×10^4, 0.75×10^4 and 0.375×10^4 cells per well. The CaSki and C33A cells were mixed 1:1 in T cell medium and 3×10^3 cells were added to each well containing T cells. Thereby effector:target (E:T) ratios of […] were achieved. Additionally, triplicates of mixed target cells without T cells were seeded, which is referred to as E:T 0. After 48 h incubation at 37° C., 5% CO2, the cells were harvested and analyzed at a BD FACS Canto™ II analyzer using the BD FACS Diva Software Version 6. The obtained data were analyzed with the FlowJo software Version 10 by applying the same gating strategy to all samples. Subsequently, the equations (1) and (2) given below were applied in Excel (Microsoft Office 2016) to calculate specific killing.
Semi long-term T cell lines were set up to obtain high numbers of T cells, which are required for the analysis of epitope specific cytotoxic T cell responses in VITAL FR cytotoxicity assays. Autologous DCs were generated from PBMCs as described in 1.7 and loaded with the desired HPV16 peptide. PBMCs of the same donor were thawed and resuspended in T cell medium supplemented with rhIL-7 (10 ng/mL) and rhIL-15 (20 ng/mL). 1×10^7 PBMCs/well were seeded to a 24-well plate in a total volume of 1 mL/well. Peptide-loaded DCs were added in a ratio of 50:1 (PBMCs:DCs) in 1 mL rhIL-7 (10 ng/mL) and rhIL-15 (20 ng/mL) supplemented T cell medium to achieve a final volume of 2 mL. The cell cultures were fed with rhIL-2 (final concentration: 40 U/mL) every other day. If the medium turned yellow the feeding was combined with a half medium change with 1 mL fresh IL-2 supplemented T cell medium. After eight days, the peptide stimulation with peptide-loaded DCs was repeated and cultivation was continued. On day 15, the T cell lines were harvested and used for CD8^+ T cell isolation and cytotoxicity assays.
In addition to the VITAL FR assay described herein above, a newly established live-cell imaging-based cytotoxicity assay was applied. […]

Substance: 1 (ISEYRHYCY; Human papillomavirus 16) [compound 1]
- ELISpot ([1]; HLA restriction A01): +*

Substance: 2 (HGDTPTLHEY; Human papillomavirus 16) [compound 2]
- ELISpot ([1]; HLA restriction A01): +*

Substance: 3 (TIHDIILQCVY; Human papillomavirus 16) [compound 3]
- ELISpot ([2]; HLA restriction A01): +
- cytokine ([3]; HLA restriction A01): +

Substance: 4 (YGVCDKCLKFY; Human papillomavirus 16) [compound 4]
- ELISpot ([2]; HLA restriction A01): +
- cytokine ([3]; HLA restriction A01): +

Substance: 5 (EYRYYCYSLY; Human papillomavirus 16) [compound 5]
- ELISpot ([2]; HLA restriction A01): +
- cytokine ([3]; HLA restriction A01): +

Substance: 6 (DLQPETTDLY; Human papillomavirus 16) [compound 6]
- ELISpot ([2]; HLA restriction A01): +
- cytokine ([3]; HLA restriction A01): +

Substance: 7 (TTDLYCYEQ; Human papillomavirus 16) [compound 7]
- ELISpot ([2]; HLA restriction A01): +
- cytokine ([3]; HLA restriction A01): +

Substance: 24 (LLMGTLGIVC; Human papillomavirus 16) [compound 24]
- ELISpot ([2]; HLA restriction A02): +
- cytokine ([3]; HLA restriction A02): +

Substance: 39 (FAFRDLCIVYR; Human papillomavirus 16) [compound 39]
- ELISpot ([2]; HLA restriction A11): +
- cytokine ([3]; HLA restriction A11): +

Substance: 40 (AFRDLCIVYR; Human papillomavirus 16) [compound 40]
- ELISpot ([2]; HLA restriction A11): +
- cytokine ([3]; HLA restriction A11): +

Substance: 41 (IVYRDGNPY; Human papillomavirus 16) [compound 41]
- ELISpot ([2]; HLA restriction A11): +
- cytokine ([3]; HLA restriction A11): +

Substance: 42 (NPYAVCDKCLK; Human papillomavirus 16) [compound 42]
- ELISpot ([2]; HLA restriction A11): +
- cytokine ([3]; HLA restriction A11): +

Substance: 44 (AVCDKCLKFYS; Human papillomavirus 16) [compound 44]
- ELISpot ([2]; HLA restriction A11): +
- cytokine ([3]; HLA restriction A11): +

Substance: 45 (VCDKCLKFYSK; Human papillomavirus 16) [compound 45]
- ELISpot ([2]; HLA restriction A11): +
- cytokine ([3]; HLA restriction A11): +

Substance: 46 (GIVCPICSQK; Human papillomavirus 16) [compound 46]
- ELISpot ([2]; HLA restriction A03): +
- cytokine ([3]; HLA restriction A03): +

Substance: 55 (DLLIRCINCQK; Human papillomavirus 16) [compound 55]
- ELISpot ([2]; HLA restriction A11): +
- cytokine ([3]; HLA restriction A11): +

Substance: 62 (TFCCKCDSTL; Human papillomavirus 16) [compound 62]
- cytotox (HPV16-positive cells; HLA restriction A24): +
- ELISpot ([2]; HLA restriction A24): +

Substance: 66 (PDRAHYNIVTF; Human papillomavirus 16) [compound 66]
- ELISpot ([2]; HLA restriction A24): +
- cytokine ([3]; HLA restriction A24): +

Substance: 67 (DRAHYNIVTF; Human papillomavirus 16) [compound 67]
- ELISpot ([2]; HLA restriction A24): +
- cytokine ([3]; HLA restriction A24): +

Substance: 68 (HYNIVTFCC; Human papillomavirus 16) [compound 68]
- ELISpot ([2]; HLA restriction A24): +
- cytokine ([3]; HLA restriction A24): +

Substance: 71 (HYCYSLYGTTL; Human papillomavirus 16) [compound 71]
- ELISpot ([2]; HLA restriction A24): +
- cytokine ([3]; HLA restriction A24): +

Substance: 76 (RPRKLPQL; Human papillomavirus 16) [compound 76]
- ELISpot ([2]; HLA restriction B07): +
- cytokine ([3]; HLA restriction B07): +

Substance: 77 (TPTLHEYML; Human papillomavirus 16) [compound 77]
- ELISpot ([1]; HLA restriction B07): *

Substance: 78 (RPRKLPQLCTE; Human papillomavirus 16) [compound 78]
- ELISpot ([2]; HLA restriction B07): +
- cytokine ([3]; HLA restriction B07): +

Substance: 80 (NIRGRWTGRCM; Human papillomavirus 16) [compound 80]
- ELISpot ([2]; HLA restriction B07): +
- ELISpot ([2]; HLA restriction B15): +
- cytokine ([3]; HLA restriction B07): +

Substance: 81 (EPDRAHYNIV; Human papillomavirus 16) [compound 81]
- ELISpot ([2]; HLA restriction B07): +
- cytokine ([3]; HLA restriction B07): +

Substance: 85 (KQQLLRREVY; Human papillomavirus 16) [compound 85]
- ELISpot ([2]; HLA restriction B15): +
- cytokine ([3]; HLA restriction B15): +

Substance: 86 (AFRDLCIVY; Human papillomavirus 16) [compound 86]
- ELISpot ([2]; HLA restriction B15): +
- cytokine ([3]; HLA restriction B15): +

Substance: 88 (GQAEPDRAHY; Human papillomavirus 16) [compound 88]
- ELISpot ([2]; HLA restriction B15): +
- cytokine ([3]; HLA restriction B15): +

Substance: 95 (YRHYCYSVY; Human papillomavirus 16) [compound 95]
- ELISpot ([2]; HLA restriction B15): +
- cytokine ([3]; HLA restriction B15): +

Substance: 106 (CQKPLCPEE; Human papillomavirus 16) [compound 106]
- ELISpot ([2]; HLA restriction B15): +

Substance: 107 (KQRHLDKKQRF; Human papillomavirus 16) [compound 107]
- ELISpot ([2]; HLA restriction B15): +

Substance: 108 (KQRFHNIRGRW; Human papillomavirus 16) [compound 108]
- ELISpot ([2]; HLA restriction B15): +
- cytokine ([3]; HLA restriction B15): +

Substance: 109 (TLHEYMLDL; Human papillomavirus 16) [compound 109]
- ELISpot ([2]; HLA restriction B15): +

Substance: 110 (GQAEPDRAH; Human papillomavirus 16) [compound 110]
- ELISpot ([2]; HLA restriction B15): +

Substance: 112 (TTDLYCYEQL; Human papillomavirus 16) [compound 112]
- ELISpot ([2]; HLA restriction A01): +

Substance: 113 (SEYRHYCY; Human papillomavirus 16) [compound 113]
- ELISpot ([2]; HLA restriction A01): +

Substance: 114 (IHEIILECVY; Human papillomavirus 16) [compound 114]
- ELISpot ([2]; HLA restriction A01): +

Substance: 116 (GTTLEQQYNK; Human papillomavirus 16) [compound 116]
- ELISpot ([2]; HLA restriction A03): +

Substance: 117 (RHYCYSLY; Human papillomavirus 16) [compound 117]
- ELISpot ([2]; HLA restriction A03): +
- cytokine ([3]; HLA restriction A03): 1

Substance: 119 (HYNIVTFC; Human papillomavirus 16) [compound 119]
- ELISpot ([2]; HLA restriction A24): +

Substance: 122 (RPRKLPDLCT; Human papillomavirus 16) [compound 122]
- ELISpot ([2]; HLA restriction B07): +
- cytokine ([3]; HLA restriction B07): +

Substance: 123 (CPDEKQRHL; Human papillomavirus 16) [compound 123]
- ELISpot ([2]; HLA restriction B07): +

Substance: 124 (LPQLCTELQT; Human papillomavirus 16) [compound 124]
- ELISpot ([2]; HLA restriction B07): +

Substance: 126 (KISEYRHY; Human papillomavirus 16) [compound 126]
- ELISpot ([2]; HLA restriction B15): +

Substance: 127 (RGRWTGRCM; Human papillomavirus 16) [compound 127]
- ELISpot ([2]; HLA restriction B15): +

Substance: 128 (AGQAEPDRAHY; Human papillomavirus 16) [compound 128]
- ELISpot ([2]; HLA restriction B15): +

Substance: 129 (FYSKISEY; Human papillomavirus 16) [compound 129]
- ELISpot ([2]; HLA restriction B15): +

Substance: IRTLEDLLMGT [compound 33]
- cytotox (HPV16-positive cells; HLA restriction A02): +

Substance: LLMGTLGIVCP [compound 25]
- cytotox (HPV16-positive cells; HLA restriction A02): +

Substance: LMGTLGIVCPI [compound 12]
- cytotox (HPV16-positive cells; HLA restriction A02): +

Substance: MGTLGIVCPI [compound 14]
- cytotox (HPV16-positive cells; HLA restriction A02): +

Substance: RLCVQSTHV [compound 11]
- cytotox (HPV16-positive cells; HLA restriction A02): +

Substance: TTIHDIILECV [compound 30]
- cytotox (HPV16-positive cells; HLA restriction A02): +

Substance: YMLDLQPE [compound 13]
- cytotox (HPV16-positive cells; HLA restriction A02): +
